Data published in patent US20250135006A1, “AMPHIPHILIC TLR7/8 ADJUVANTS AND USES THEREOF” (Pfizer Inc., priority 2023, published 2025).

How the values were obtained:
S. pneumoniae serotype 3 = assay type: in vivo, female Swiss-Webster mice; conditions: mouse
[1] = target: T1, human toll like receptor 8 (hTLR8) (Homo sapiens, UniProt Q9NR97); assay: hTLR8 in-vitro functional assay (HEK-Blue hTLR8 SEAP reporter); assay type: cell-based; conditions: HEK-Blue hTLR8 cells, overnight incubation
T1 construct: host or cells: HEK293 (HEK-Blue hTLR8)
T1 sequence (Q9NR97 27-1041): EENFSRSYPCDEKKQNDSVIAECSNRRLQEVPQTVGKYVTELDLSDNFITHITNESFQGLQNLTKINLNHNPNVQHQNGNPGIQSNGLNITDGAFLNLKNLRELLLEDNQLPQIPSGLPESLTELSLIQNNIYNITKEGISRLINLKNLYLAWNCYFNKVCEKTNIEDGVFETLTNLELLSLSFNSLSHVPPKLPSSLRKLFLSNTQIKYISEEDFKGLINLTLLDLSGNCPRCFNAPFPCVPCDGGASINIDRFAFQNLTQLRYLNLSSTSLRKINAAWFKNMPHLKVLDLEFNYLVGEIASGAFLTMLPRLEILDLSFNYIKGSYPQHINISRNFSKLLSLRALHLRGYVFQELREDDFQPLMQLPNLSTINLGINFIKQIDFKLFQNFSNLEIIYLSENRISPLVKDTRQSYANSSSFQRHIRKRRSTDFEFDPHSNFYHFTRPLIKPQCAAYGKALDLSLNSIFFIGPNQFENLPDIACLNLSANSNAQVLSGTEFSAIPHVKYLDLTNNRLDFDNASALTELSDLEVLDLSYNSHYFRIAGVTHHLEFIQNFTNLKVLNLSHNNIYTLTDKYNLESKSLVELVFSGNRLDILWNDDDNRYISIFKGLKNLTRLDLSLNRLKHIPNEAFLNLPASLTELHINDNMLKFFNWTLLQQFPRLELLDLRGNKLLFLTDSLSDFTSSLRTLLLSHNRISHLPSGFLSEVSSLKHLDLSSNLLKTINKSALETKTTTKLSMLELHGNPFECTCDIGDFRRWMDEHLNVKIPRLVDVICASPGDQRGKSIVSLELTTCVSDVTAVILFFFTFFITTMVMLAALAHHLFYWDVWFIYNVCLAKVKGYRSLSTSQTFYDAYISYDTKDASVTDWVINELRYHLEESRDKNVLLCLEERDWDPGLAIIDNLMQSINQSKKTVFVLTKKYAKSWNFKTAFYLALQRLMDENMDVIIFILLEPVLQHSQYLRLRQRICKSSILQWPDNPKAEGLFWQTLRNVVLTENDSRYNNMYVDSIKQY

## CCCCc1nc2c(N)nc3cc(CCCN4CCN(C(=O)CCOCCOCCOCCOCCOCCOCCOCCOCCOCCOCCOCCOCCOCCOCCOCCOCCOCCOCCOCCOCCOCCOCCOCCOCCNC(=O)CCOCCOCCOCCOCCNC(=O)CCCOc5c(C)c(C)c6c(c5C)CC[C@@](C)(CCC[C@H](C)CCC[C@H](C)CCCC(C)C)O6)CC4)ccc3c2n1CC(C)(CO)CO [Compound 2, N-{75-[4-(3-{4-amino-2-butyl-1-[3-hydroxy-2-(hydroxymethyl)-2-methylpropyl]-1H-imidazo[4,5-c]quinolin-7-yl}propyl)piperazin-1-yl]-75-oxo-3,6,9,12,15,18,21,24,27,30,33,36,39,42,45,48,51,54,57,60,63,66,69,72-tetracosaoxapentaheptacont-1-yl}-17-oxo-20-({(2R)-2,5,7,8-tetramethyl-2-[(4R,8R)-4,8,12-trimethyltridecyl]-3,4-dihydro-2H-chromen-6-yl}oxy)-4,7,10,13-tetraoxa-16-azaicosan-1-amide]
S. pneumoniae serotype 3; 0.1 μg S. pneumoniae serotype 3-CRM197 antigen with adjuvant (2 nmol; AlPO4 100 μg), IM weeks 0 and 3, sera week 5
  OPA geometric mean titers (GMT): 610
S. pneumoniae serotype 3; S. pneumoniae serotype 3 antigen, versus aluminum phosphate and free TLR 7/8 agonist
  OPA geometric mean titers compared with reference adjuvants: higher average OPA geometric mean titers than aluminum phosphate, as well as the free TLR 7/8 agonist molecule
[1]
  EC50: 5.03 µM
